Results reported in BigSolDB 2.1.

CCOC(=O)C1=C[C@]2(CC)CCCN3CCc4c(n1c1ccccc41)[C@@H]32
solubility (mole fraction)
Details | in 2-butanone | in cyclohexane | in ethanol | in ethyl acetate | in isopropanol | in methanol | in methyl acetate | in n-butanol | in n-propanol
283.15 K | 0.00526 | 0.00133 | 0.000492 | 0.0039 | 0.000345 | 0.000378 | 0.00262 | 0.000936 | 0.000727
288.15 K | 0.00649 | 0.0017 | 0.000641 | 0.00481 | 0.000474 | 0.000476 | 0.00329 | 0.00127 | 0.00098
293.15 K | 0.00793 | 0.00216 | 0.00082 | 0.00585 | 0.000643 | 0.000608 | 0.00416 | 0.0017 | 0.00126
298.15 K | 0.00962 | 0.00274 | 0.00101 | 0.00718 | 0.000834 | 0.000736 | 0.00517 | 0.0022 | 0.00164
303.15 K | 0.0118 | 0.00346 | 0.00126 | 0.00879 | 0.00108 | 0.00089 | 0.00646 | 0.00285 | 0.00208
308.15 K | 0.0142 | 0.00433 | 0.00158 | 0.0106 | 0.00137 | 0.0011 | 0.00794 | 0.00374 | 0.00268
313.15 K | 0.017 | 0.00537 | 0.00197 | 0.0127 | 0.00184 | 0.00136 | 0.00973 | 0.0048 | 0.00343
318.15 K | 0.0203 | 0.00656 | 0.00245 | 0.0154 | 0.00245 | 0.00166 | 0.0121 | 0.00632 | 0.00435
323.15 K | 0.0239 | 0.00802 | 0.00302 | 0.0185 | 0.00323 | 0.00204 | 0.0148 | 0.00806 | 0.00528
